Patent EP4810508A1, “ARABINOSE DERIVATIVE COMPOUND, AND COMPOSITION COMPRISING SAME FOR PREVENTING OR TREATING DEGENERATIVE BRAIN DISEASES” (Digmbio. Inc., priority 2023, dated 2025)
Like-named read-outs stand apart in the source and are kept apart here.

Test system: HRE/Luc/HEK293 cells
Test: HRE (Hypoxia Response Element) luciferase assay
Type: cell-based, human
Settings: for fold induction at 10 µM / fold induction at 100 µM: Homo sapiens; for HRE expression: low concentration of 1 µM
Method: • (a) HRE assay: Confirmation of increased in HRE expression levels by the test substance relative to the vehicle in HRE/Luc/HEK293 cells • * Less than a twofold increase at 100 µM, • ** More than a twofold increase at 100 µM, • *** More than a twofold increase at 10 µM, • **** More than a twofold increase at 1 µM, • Not performed.
It has been reported that in the brains of AD patients, blood supply is mostly insufficient, resulting in oxygen levels being up to 50% lower than those of normal individuals, leading to increased oxidative stress (ROS) and neuroinflammation. It has also been studied that when the HIF-1α (hypoxia inducible factor-1) factor binds to the HRE (hypoxia response element), it increases VEGF (vascular endothelial growth factor), which promotes the formation of new blood vessels, thereby increasing oxygen levels in the brain and helping to inhibit nerve cell damage.
A reporter gene containing luciferase, capable of verifying the level of HRE expression, was inserted into HEK-293 human embryonic kidney cells, and HRE/Luc/HEK293 cells were constructed by inserting a plasmid (HRE/Luc) with luciferase attached downstream of the HRE promoter that binds to HIF-1α using lipofectamine (Invitrogen).
To perform HRE luciferase analysis, HRE/Luc/HEK293 cells were seeded in 96-well culture plates at a cell density of 4 x 10^4 per well in minimal essential medium (MEM) containing 10% fetal bovine serum. After one day, the cell medium was removed and replaced with medium mixed with various concentrations of example compounds. Six hours after compound pretreatment, HRE/Luc/HEK293 cells were cultured under hypoxic conditions (O2 0.1%) for 18 hours. Subsequently, the cells were washed with phosphate buffer, lysed with lysis buffer, and then the luciferase reagent (Promega) for luciferase analysis was added. Afterward, changes in HRE expression levels associated with HIF-1 signaling were evaluated by measuring luminescence using an Infinite200 (Tecan).

[1] = HEK293, 18 h, Table 2 (Examples 75-109, 114), read-out: HRE-inceasing 10uM
[2] = HEK293, 18 h, Table 2 (Examples 75-109, 114), read-out: HRE-inceasing 100uM
[3] = HEK293, 18 h, Table 2 (Examples 37-74, 52), read-out: HKt-increasing 10uM
[4] = HEK293, 18 h, Table 2 (Examples 37-74, 52), read-out: HKt-increasing 100uM
[5] = HEK293, fold increase of HRE expression, hypoxic conditions (O2 0.1%) 18 hours, Table 2, read-out: HRE-increasing 10uM
[6] = HEK293, fold increase of HRE expression, hypoxic conditions (O2 0.1%) 18 hours, Table 2, read-out: HRE-increasing 100uM

COc1ccc2oc(-c3cccc(O[C@H]4OC[C@H](O)[C@H](O)[C@H]4O)c3)nc2c1 [Example 107, (2R,3R,4S,5S)-2-(3-(5-methoxybenzo[d]oxazol-2-yl)phenoxy)tetrahydro-2H-pyran-3,4,5-triol]
fold induction at 10 µM [1]: 3.1 | fold induction at 100 µM [2]: 4.2 | HRE expression: more than threefold

Cc1ccc2oc(-c3ccc(O[C@@H]4OC[C@H](O)[C@H](O)[C@H]4O)cc3)nc2c1 [Example 108, (2S,3R,4S,5S)-2-(4-(5-methylbenzo[d]oxazol-2-yl)phenoxy)tetrahydro-2H-pyran-3,4,5-triol]
fold induction at 10 µM [1]: 3.6 | fold induction at 100 µM [2]: 1.6 | HRE expression: more than threefold

COc1ccc2c(ccn2-c2ccc(O[C@@H]3OC[C@H](O)[C@H](O)[C@H]3O)cc2)c1 [Example 83, (2S,3R,4S,5S)-2-(4-(5-methoxy-1H-indol-1-yl)phenoxy)tetrahydro-2H-pyran-3,4,5-triol]
fold induction at 10 µM [1]: 2.2 | fold induction at 100 µM [2]: 3.3

CCOc1ccc(Cc2ccc(O[C@H]3OC[C@H](O)[C@H](O)[C@H]3O)cc2)cc1 [Example 39, (2R,3R,4S,5S)-2-(4-(4-ethoxybenzyl)phenoxy) tetrahydro-2H-pyran-3,4,5-triol]
fold induction at 10 µM [3]: 1.1 | fold induction at 100 µM [4]: 1.3

CC(C)c1cccc2nc(-c3cccc(O[C@@H]4OC[C@H](O)[C@H](O)[C@H]4O)c3)oc12 [Example 98, (2S,3R,4S,5S)-2-(3-(7-isopropylbenzo[d]oxazol-2-yl)phenoxy)tetrahydro-2H-pyran-3,4,5-triol]
fold induction at 10 µM [1]: 1.1 | fold induction at 100 µM [2]: 1.4

CC(C)c1cccc2nc(-c3cccc(O[C@H]4OC[C@H](O)[C@H](O)[C@H]4O)c3)oc12 [Example 97, (2R,3R,4S,5S)-2-(3-(7-isopropylbenzo[d]oxazol-2-yl)phenoxy)tetrahydro-2H-pyran-3,4,5-triol]
fold induction at 10 µM [1]: 1.1 | fold induction at 100 µM [2]: 1.2

COc1ccc(C(c2ccc(O[C@H]3OC[C@H](O)[C@H](O)[C@H]3O)cc2)(C(F)(F)F)C(F)(F)F)cc1 [Example 32, (2R,3R,4S,5S)-2-(4-(1,1,1,3,3,3-hexafluoro-2-(4-methoxyphenyl)propan-2-yl)phenoxy)tetrahydro-2H-pyran-3,4,5-triol]
fold induction at 10 µM [5]: 1.3 | fold induction at 100 µM [6]: 1.8

Cc1ccc2oc(-c3ccc(O[C@H]4OC[C@H](O)[C@H](O)[C@H]4O)c(Cl)c3)nc2c1 [Example 99, (2R,3R,4S,5S)-2-(2-chloro-4-(5-methylbenzo [d]oxazol-2-yl)phenoxy)tetrahydro-2H-pyran-3,4,5-triol]
fold induction at 10 µM [1]: 2.8 | fold induction at 100 µM [2]: 3.6

CC(C)c1ccc(Cc2ccc(O[C@H]3OC[C@@H](O)[C@H](O)[C@H]3O)cc2)cc1 [Example 43, (2R,3R,4S,5R)-2-(4-(4-isopropylbenzyl)phenoxy)tetrahydro-2H-pyran-3,4,5-triol]
fold induction at 10 µM [3]: 3.3 | fold induction at 100 µM [4]: 2.5 | HRE expression: more than threefold

COc1ccc2c(ccn2-c2ccc(O[C@H]3OC[C@H](O)[C@H](O)[C@H]3O)cc2)c1 [Example 82, (2R,3R,4S,5S)-2-(4-(5-methoxy-1H-indol-1-yl)phenoxy)tetrahydro-2H-pyran-3,4,5-triol]
fold induction at 10 µM [1]: 1.4 | fold induction at 100 µM [2]: 2.3

CC(C)c1ccc(Oc2ccc(O[C@H]3OC[C@@H](O)[C@H](O)[C@H]3O)c(F)c2)cc1 [Example 101, (2R,3R,4S,5R)-2-(2-fluoro-4-(4-isopropylphenoxy)phenoxy)tetrahydro-2H-pyran-3,4,5-triol]
fold induction at 10 µM [1]: 3.7 | fold induction at 100 µM [2]: 2.5

COc1ccc(C(=O)c2ccc(O[C@H]3OC[C@H](O)[C@H](O)[C@H]3O)cc2)cc1 [Example 71, (4-methoxyphenyl)(4-(((2R,3R,4S,5S)-3,4,5-trihydroxytetrahydro-2H-pyran-2-yl)oxy)phenyl)methanone]
fold induction at 10 µM [3]: 1.3 | fold induction at 100 µM [4]: 2

O=C(c1ccc(O[C@@H]2OC[C@H](O)[C@H](O)[C@H]2O)cc1)c1ccco1 [Example 114, furan-2-yl (4-(((2S,3R,4S,5S)-3,4,5-trihydroxytetrahydro-2H-pyran-2-yl)oxy)phenyl)methanone]
fold induction at 10 µM [1]: 1.1 | fold induction at 100 µM [2]: 1.3

Cc1ccc2oc(-c3ccc(O[C@@H]4OC[C@H](O)[C@H](O)[C@H]4O)c(Cl)c3)nc2c1 [Example 100, (2S,3R,4S,5S)-2-(2-chloro-4-(5-methylbenzo[d]oxazol-2-yl)phenoxy) tetrahydro-2H-pyran-3,4,5-triol]
fold induction at 10 µM [1]: 2.7 | fold induction at 100 µM [2]: 2.4

CC(C)c1ccc(Oc2ccc(O[C@H]3OC[C@@H](F)[C@H](O)[C@H]3O)cc2)cc1 [Example 64, (2R,3R,4R,5R)-5-fluoro-2-(4-(4-isopropylphenoxy)phenoxy)tetrahydro-2H-pyran-3,4-diol]
fold induction at 10 µM [3]: 2.4 | fold induction at 100 µM [4]: 2.3

Cc1cc(C)cc(Oc2ccc(O[C@H]3OC[C@H](O)[C@H](O)[C@H]3O)cc2)c1 [Example 34, (2R,3R,4S,5S)-2-(4-(3,5-dimethylphenoxy)phenoxy)tetrahydro-2H-pyran-3,4,5-triol]
fold induction at 10 µM [5]: 1.1 | fold induction at 100 µM [6]: 1

CC(C)c1ccc2nc(-c3ccc(O[C@H]4OC[C@H](O)[C@H](O)[C@H]4O)cc3)oc2c1 [Example 88, (2R,3R,4S,5S)-2-(4-(6-isopropylbenzo[d]oxazol-2-yl)phenoxy)tetrahydro-2H-pyran-3,4,5-triol]
fold induction at 10 µM [1]: 1.7 | fold induction at 100 µM [2]: 3.1

CO[C@H]1CO[C@H](Oc2ccc(Oc3ccc(C(C)C)cc3)cc2)[C@H](O)[C@H]1O [Example 61, (2R,3R,4R,5S)-2-(4-(4-isopropylphenoxy)phenoxy)-5-methoxytetrahydro-2H-pyran-3,4-diol]
fold induction at 10 µM [3]: 1.1 | fold induction at 100 µM [4]: 1.3

CC(C)c1ccc(Oc2ccc(O[C@H]3O[C@H](CO)[C@H](O)[C@H](O)[C@H]3O)cc2)cc1 [Example 59, (2R,3R,4S,5R,6R)-2-(hydroxymethyl)-6-(4-(4-isopropylphenoxy)phenoxy)tetrahydro-2H-pyran-3,4,5-triol]
fold induction at 10 µM [3]: 1.8 | fold induction at 100 µM [4]: 2.8

CC(C)c1ccc(Cc2ccc(O[C@H]3OC[C@H](O)[C@H](O)[C@H]3O)cc2Cl)cc1 [Example 40, (2R,3R,4S,5S)-2-(3-chloro-4-(4-isopropylbenzyl)phenoxy)tetrahydro-2H-pyran-3,4,5-triol]
fold induction at 10 µM [3]: 2.6 | fold induction at 100 µM [4]: 3.1

COc1ccc2oc(-c3ccc(O[C@@H]4OC[C@@H](O)[C@H](O)[C@H]4O)cc3)nc2c1 [Example 94, (2S,3R,4S,5R)-2-(4-(5-methoxybenzo[d]oxazol-2-yl)phenoxy)tetrahydro-2H-pyran-3,4,5-triol]
fold induction at 10 µM [1]: 3 | fold induction at 100 µM [2]: 2.2 | HRE expression: more than threefold

COc1ccc(Cc2ccc(O[C@H]3OC[C@H](O)[C@H](O)[C@H]3O)cc2)cc1OC [Example 17, (2R,3R,4S,5S)-2-(4-(3,4-dimethoxybenzyl)phenoxy)tetrahydro-2H-pyran-3,4-triol]
fold induction at 10 µM [5]: 1.2 | fold induction at 100 µM [6]: 1.5

COc1ccc(Cc2ccc(O[C@H]3OC[C@@H](O)[C@H](O)[C@H]3O)cc2)cc1 [Example 42, (2R,3R,4S,5R)-2-(4-(4-methoxybenzyl)phenoxy) tetrahydro-2H-pyran-3,4,5-triol]
fold induction at 10 µM [3]: 2.4 | fold induction at 100 µM [4]: 3.1

N#Cc1ccc(C(=O)c2ccc(O[C@@H]3OC[C@H](O)[C@H](O)[C@H]3O)cc2)cc1 [Example 72, 4-(4-(((2S,3R,4S,5S)-3,4,5-trihydroxytetrahydro-2H-pyran-2-yl)oxy)benzoyl)benzonitrile]
fold induction at 10 µM [3]: 1 | fold induction at 100 µM [4]: 1.3

COc1ccc(Cc2ccc(O[C@H]3OC[C@H](O)[C@H](O)[C@H]3O)c(F)c2)cc1 [Example 46, (2R,3R,4S,5S)-2-(2-fluoro-4-(4-methoxybenzyl)phenoxy)tetrahydro-2H-pyran-3,4,5-triol]
fold induction at 10 µM [3]: 1.1 | fold induction at 100 µM [4]: 1.8

CC(C)c1ccc(Oc2cccc(O[C@H]3OC[C@H](O)[C@H](O)[C@H]3O)c2)cc1 [Example 54, (2R,3R,4S,5S)-2-(3-(4-isopropylphenoxy)phenoxy)tetrahydro-2H-pyran-3,4,5-triol]
fold induction at 10 µM [3]: 1 | fold induction at 100 µM [4]: 1.5
